Laboratory results: US10857246B2, “Nuclear imaging and radiotherapeutics agents targeting carbonic anhydrase IX and uses thereof” (THE JOHNS HOPKINS UNIVERSITY, priority 2015, dated 2020)
Several values for one entry are separate records, joined by “and”; a condition that tells them apart may be missing. Identical values can stand only once.

System: CAIX-expressing SK-RC-52 tumors
Assay: Biodistribution in mice bearing SK-RC-52 xenografts
Format: in vivo
Conditions: for Biodistribution Bladder / Biodistribution Blood / Biodistribution Brain / Biodistribution Fat / Biodistribution Heart / Biodistribution Kidney / Biodistribution Liver / Biodistribution Lung / Biodistribution Muscle / Biodistribution Pancreas / Biodistribution Small intestine / Biodistribution Spleen / Biodistribution Stomach / Biodistribution Tumor / Tumor/Kidney ratio / Tumor/Blood ratio / Tumor/Muscle ratio: 740 kBq i.v.
Description: Animal experiments were performed in accordance with protocols approved by the Johns Hopkins Animal Care and Use Committee (ACUC). Six-week-old female NOD/SCID mice were purchased from the Animal Resource Core of the Sidney Kimmel Comprehensive Cancer Center of Johns Hopkins and were subcutaneously injected in the lower left flank or upper right flank with 1×10^6 SK-RC-52 cells in RPMI 1640 GlutaMAX™ media (Life Technologies, Frederick, Md.) supplemented with 1% fetal bovine serum (FBS). Mice were monitored for tumor size and used for SPECT/CT imaging when the size of the tumor reached 100 mm^3.
Mice bearing SK-RC-52 xenografts at lower left flank were injected intravenously with 740 kBq (20 μCi) of [^111In]XYIMSR-01, or [^177Lu]XYIMSR-01 in 200 μL of PBS. For competitive blocking, same tumor bearing mice were injected with 740 kBq (20 μCi) of [^111In]XYIMSR-01 and 200 nmole of 8 in 200 μL of PBS. At 1 h, 4 h, 8 h, 24 h and 48 h post-injection, mice were sacrificed by cervical dislocation and the blood was immediately collected by cardiac puncture. Heart, lungs, pancreas, spleen, fat, brain, muscle, small intestines, liver, stomach, kidney, urinary bladder, and tumor were collected. Each organ was weighed and the tissue radioactivity was measured with an automated gamma counter (1282 Compugamma CS, Pharmacia/LKBNuclear, Inc., Mt. Waverly, Vic. Australia). The percentage of injected dose per gram of tissue (% ID/g) was calculated by comparison with samples of a standard dilution of the initial dose. All measurements were corrected for radioactive decay.
Data were expressed as mean±standard deviation (SD). Prism software (GraphPAD, San Diego, Calif.) was used to determine statistical significance. Statistical significance was calculated using a paired t test. P-values <0.0001 were considered significant.
Mice bearing SK-RC-52 xenografts within the lower left flank were injected intravenously with 740 kBq (20 μCi) of [Al^18F]XYIMSR-04 in 200 μL of PBS. At specific 1 hour time point mentioned in the paper, mice (n=5) were sacrificed by cervical dislocation and the blood was immediately collected by cardiac puncture. Heart, lungs, pancreas, spleen, fat, brain, muscle, small intestines, liver, bone, stomach, kidney, urinary bladder, and tumor were collected. Each organ was weighed and the tissue radioactivity was measured with an automated gamma counter (1282 Compugamma CS, Pharmacia/LKBNuclear, Inc., Mt. Waverly, Vic. Australia). The percentage of injected dose per gram of tissue (% ID/g) was calculated by comparison with samples of a standard dilution of the initial dose. All measurements were corrected for radioactive decay. Data were expressed as mean±standard deviation (SD). Prism software (GraphPAD, San Diego, Calif.) was used to determine statistical significance. Statistical significance was calculated using a paired t test. P-values <0.0001 were considered significant.
Mice bearing SK-RC-52 xenografts within the upper right flank were injected intravenously with 740 kBq (20 μCi) of [^64Cu]XYIMSR-06 in 200 μL of PBS. For in vivo competition (binding specificity) studies, tumor-bearing mice were injected with 740 kBq (20 μCi) of [^64Cu]XYIMSR-06 and 200 nmole of 8 in 200 μL of PBS concurrently. At specific times after injection (1 h, 4 h, 8 h and 24 h), mice (n=5) were sacrificed by cervical dislocation with blood immediately collected by cardiac puncture. Heart, lungs, pancreas, spleen, fat, brain, muscle, small intestines, liver, stomach, kidney, urinary bladder, and tumor were also collected. Each organ was weighed and the tissue radioactivity was measured with an automated gamma counter (1282 Compugamma CS, Pharmacia/LKBNuclear, Inc., Mt. Waverly, Vic. Australia). The percentage of injected dose per gram of tissue (% ID/g) was calculated by comparison with samples of a standard dilution of the initial dose. All measurements were corrected for radioactive decay. Data were expressed as mean±standard deviation (SD). […]

For `CC(CCC(=O)N[C@@H](CC(=O)N[C@@H](CC(=O)N[C@@H](CCCCn1cc(CCCC(=O)Nc2nnc(S(N)(=O)=O)s2)nn1)C(=O)NCCOCCOCCNC(=O)CN1CCN(CC(=O)[O-])CCN(CC(=O)[O-])CCN(CC(=O)[O-])CC1)C(=O)O)C(=O)O)(c1ccc(O)cc1)c1ccc(O)cc1.[111In+3]` [[^111In]XYIMSR-01], the “Biodistribution Bladder” value (1 h post-injection) was 4.90 % ID/g, the “Biodistribution Blood” value (1 h post-injection) was 1.34 % ID/g and the “Biodistribution Brain” value (1 h post-injection) was 1.23 % ID/g. For the same molecule, the “Biodistribution Fat” value (1 h post-injection) was 1.03 % ID/g, the “Biodistribution Heart” value (1 h post-injection) was 5.98 % ID/g and the “Biodistribution Kidney” value (1 h post-injection) was 71.26 % ID/g. The “Biodistribution Liver” value (1 h post-injection) was 8.36 % ID/g, the “Biodistribution Lung” value (1 h post-injection) was 45.85 % ID/g and the “Biodistribution Muscle” value (1 h post-injection) was 2.34 % ID/g. For the same molecule, the “Biodistribution Pancreas” value (1 h post-injection) was 3.81 % ID/g, the “Biodistribution Small intestine” value (1 h post-injection) was 9.37 % ID/g and the “Biodistribution Spleen” value (1 h post-injection) was 0.52 % ID/g. For the same molecule, the “Biodistribution Stomach” value (1 h post-injection) was 16.71 % ID/g, the “Biodistribution Tumor” value (1 h post-injection) was 26 % ID/g and 26.01 % ID/g and the Tumor/Kidney ratio (1 h post-injection) was 0.36. For the same molecule, the “Biodistribution Bladder” value (4 h post-injection) was 2.68 % ID/g, the “Biodistribution Blood” value (4 h post-injection) was 0.65 % ID/g and the “Biodistribution Brain” value (4 h post-injection) was 0.45 % ID/g. For the same molecule, the “Biodistribution Fat” value (4 h post-injection) was 0.42 % ID/g, the “Biodistribution Heart” value (4 h post-injection) was 2.91 % ID/g and the “Biodistribution Kidney” value (4 h post-injection) was 41.52 % ID/g. For the same molecule, the “Biodistribution Liver” value (4 h post-injection) was 4.00 % ID/g, the “Biodistribution Lung” value (4 h post-injection) was 17.85 % ID/g and the “Biodistribution Muscle” value (4 h post-injection) was 1.01 % ID/g. The “Biodistribution Pancreas” value (4 h post-injection) was 1.54 % ID/g, the “Biodistribution Small intestine” value (4 h post-injection) was 4.27 % ID/g and the “Biodistribution Spleen” value (4 h post-injection) was 0.51 % ID/g. The “Biodistribution Stomach” value (4 h post-injection) was 7.91 % ID/g, the “Biodistribution Tumor” value (4 h post-injection) was 20.83 % ID/g and the Tumor/Blood ratio (4 h post-injection) was 31.9. For the same molecule, the Tumor/Kidney ratio (4 h post-injection) was 0.50, the Tumor/Muscle ratio (4 h post-injection) was 21.4 and the “Biodistribution Bladder” value (8 h post-injection) was 2.28 % ID/g. The “Biodistribution Blood” value (8 h post-injection) was 0.48 % ID/g, the “Biodistribution Brain” value (8 h post-injection) was 0.59 % ID/g and the “Biodistribution Fat” value (8 h post-injection) was 0.45 % ID/g. The “Biodistribution Heart” value (8 h post-injection) was 2.61 % ID/g, the “Biodistribution Kidney” value (8 h post-injection) was 28.79 % ID/g and the “Biodistribution Liver” value (8 h post-injection) was 3.65 % ID/g. For the same molecule, the “Biodistribution Lung” value (8 h post-injection) was 17.39 % ID/g, the “Biodistribution Muscle” value (8 h post-injection) was 1.09 % ID/g and the “Biodistribution Pancreas” value (8 h post-injection) was 1.61 % ID/g. The “Biodistribution Small intestine” value (8 h post-injection) was 4.31 % ID/g, the “Biodistribution Spleen” value (8 h post-injection) was 0.64 % ID/g and the “Biodistribution Stomach” value (8 h post-injection) was 8.74 % ID/g. The “Biodistribution Tumor” value (8 h post-injection) was 34.0 % ID/g, the Tumor/Blood ratio (8 h post-injection) was 77.0 and the Tumor/Kidney ratio (8 h post-injection) was 3.1. For the same molecule, the Tumor/Muscle ratio (8 h post-injection) was 34.2, the “All other tumor/organ ratios” value (24 h) was no less than 10 and the “Biodistribution Bladder” value (24 h + block (200 nmole of 8)) was 0.20 % ID/g. The “Biodistribution Blood” value (24 h + block (200 nmole of 8)) was 0.03 % ID/g, the “Biodistribution Brain” value (24 h + block (200 nmole of 8)) was 0.03 % ID/g and the “Biodistribution Fat” value (24 h + block (200 nmole of 8)) was 0.02 % ID/g. For the same molecule, the “Biodistribution Heart” value (24 h + block (200 nmole of 8)) was 0.04 % ID/g, the “Biodistribution Kidney” value (24 h + block (200 nmole of 8)) was 0.68 % ID/g and the “Biodistribution Liver” value (24 h + block (200 nmole of 8)) was 0.10 % ID/g. For the same molecule, the “Biodistribution Lung” value (24 h + block (200 nmole of 8)) was 0.12 % ID/g, the “Biodistribution Muscle” value (24 h + block (200 nmole of 8)) was 0.02 % ID/g and the “Biodistribution Pancreas” value (24 h + block (200 nmole of 8)) was 0.03 % ID/g. The “Biodistribution Small intestine” value (24 h + block (200 nmole of 8)) was 0.08 % ID/g, the “Biodistribution Spleen” value (24 h + block (200 nmole of 8)) was 0.08 % ID/g and the “Biodistribution Stomach” value (24 h + block (200 nmole of 8)) was 0.14 % ID/g. The “Biodistribution Tumor” value (24 h + block (200 nmole of 8)) was 1.41 % ID/g, the Tumor/Blood ratio (24 h + block (200 nmole of 8)) was 45.2 and the Tumor/Kidney ratio (24 h + block (200 nmole of 8)) was 2.1. For the same molecule, the Tumor/Muscle ratio (24 h + block (200 nmole of 8)) was 91.4, the “Uptake to tumors with simultaneously injected non-radioactive competitor 8” value (24 h and 48 h post injection) was roughly 1% and the “Biodistribution Bladder” value (24 h post-injection) was 0.74 % ID/g. For the same molecule, the “Biodistribution Blood” value (24 h post-injection) was 0.15 % ID/g, the “Biodistribution Brain” value (24 h post-injection) was 0.71 % ID/g and the “Biodistribution Fat” value (24 h post-injection) was 0.28 % ID/g. The “Biodistribution Heart” value (24 h post-injection) was 1.16 % ID/g, the “Biodistribution Kidney” value (24 h post-injection) was 15.29 % ID/g and the “Biodistribution Liver” value (24 h post-injection) was 3.02 % ID/g. The “Biodistribution Lung” value (24 h post-injection) was 11.01 % ID/g, the “Biodistribution Muscle” value (24 h post-injection) was 0.35 % ID/g and the “Biodistribution Pancreas” value (24 h post-injection) was 0.69 % ID/g. The “Biodistribution Small intestine” value (24 h post-injection) was 2.11 % ID/g, the “Biodistribution Spleen” value (24 h post-injection) was 0.69 % ID/g and the “Biodistribution Stomach” value (24 h post-injection) was 3.31 % ID/g. The “Biodistribution Tumor” value (24 h post-injection) was 25.62 % ID/g, the “Biodistribution Bladder” value (48 h + block (200 nmole of 8)) was 0.14 % ID/g and the “Biodistribution Blood” value (48 h + block (200 nmole of 8)) was 0.03 % ID/g. The “Biodistribution Brain” value (48 h + block (200 nmole of 8)) was 0.03 % ID/g, the “Biodistribution Fat” value (48 h + block (200 nmole of 8)) was 0.03 % ID/g and the “Biodistribution Heart” value (48 h + block (200 nmole of 8)) was 0.04 % ID/g. For the same molecule, the “Biodistribution Kidney” value (48 h + block (200 nmole of 8)) was 0.45 % ID/g, the “Biodistribution Liver” value (48 h + block (200 nmole of 8)) was 0.13 % ID/g and the “Biodistribution Lung” value (48 h + block (200 nmole of 8)) was 0.09 % ID/g. For the same molecule, the “Biodistribution Muscle” value (48 h + block (200 nmole of 8)) was 0.02 % ID/g, the “Biodistribution Pancreas” value (48 h + block (200 nmole of 8)) was 0.03 % ID/g and the “Biodistribution Small intestine” value (48 h + block (200 nmole of 8)) was 0.08 % ID/g. For the same molecule, the “Biodistribution Spleen” value (48 h + block (200 nmole of 8)) was 0.11 % ID/g, the “Biodistribution Stomach” value (48 h + block (200 nmole of 8)) was 0.14 % ID/g and the “Biodistribution Tumor” value (48 h + block (200 nmole of 8)) was 1.22 % ID/g. The Tumor/Blood ratio (48 h + block (200 nmole of 8)) was 45.4, the Tumor/Kidney ratio (48 h + block (200 nmole of 8)) was 2.7 and the Tumor/Muscle ratio (48 h + block (200 nmole of 8)) was 75.1. For the same molecule, the “Biodistribution Bladder” value (48 h post-injection) was 0.38 % ID/g, the “Biodistribution Blood” value (48 h post-injection) was 0.06 % ID/g and the “Biodistribution Brain” value (48 h post-injection) was 0.41 % ID/g. The “Biodistribution Fat” value (48 h post-injection) was 0.25 % ID/g, the “Biodistribution Heart” value (48 h post-injection) was 0.84 % ID/g and the “Biodistribution Kidney” value (48 h post-injection) was 8.78 % ID/g. For the same molecule, the “Biodistribution Liver” value (48 h post-injection) was 1.65 % ID/g, the “Biodistribution Lung” value (48 h post-injection) was 9.22 % ID/g and the “Biodistribution Muscle” value (48 h post-injection) was 0.39 % ID/g. The “Biodistribution Pancreas” value (48 h post-injection) was 0.59 % ID/g, the “Biodistribution Small intestine” value (48 h post-injection) was 1.22 % ID/g and the “Biodistribution Spleen” value (48 h post-injection) was 0.67 % ID/g. The “Biodistribution Stomach” value (48 h post-injection) was 1.82 % ID/g, the “Biodistribution Tumor” value (48 h post-injection) was 13.92 % ID/g and the Tumor/Blood ratio (48 h post-injection) was 212.0. It also gave a Tumor/Kidney ratio (48 h post-injection) of 1.5 and a Tumor/Muscle ratio (48 h post-injection) of 52.0.
